The values below come from patent US20120276124A1, “MAYTANSINOIDS AND THE USE OF SAID MAYTANSINOIDS TO PREPARE CONJUGATES WITH AN ANTIBODY” (priority 2009, published 2012).

In one assay the test system is MDA-MB231. Put plainly: Inhibition of growth of MDA-MB-231 tumor cells by free drugs (14C thymidine uptake). Format: cell-based. To be noted: Homo sapiens, MDA-MB231, 96 hrs, read-out: cellular inhibition proliferation (IC50 in nM) MDA-MB231. How it is done:
(§1) Inhibition of Growth of MDA-MB-231 and HCT116 Tumor Cells
(§2) Cells in exponential phase of growth were trypsinized and resuspended in their respective culture medium (DMEM/F12 Gibco #21331; 10% SVF Gibco #10500-056; […] Glutamine Gibco #25030 for MDA-MB231 & MDA-A1 cells; DMEM (Gibco #11960) 10%, SVF Gibco #10500-056; […] Glutamine Gibco #25030 for HCT116 cells). Cell suspension was distributed in 96-well Cytostar culture plates (GE Healthcare Europe, #RPNQ0163) in complete serum-containing media at a density of 5000 cells/well (MDA-MB231 HCT116). After coating for 4 hrs, serial dilutions were added to triplicate wells. Cells were cultured at 37° C./5% CO2 in the presence of the drug for 3 days. On the 4th day, 10 μl of a solution of 14C thymidine (0.1 μCi/well (Perkin Elmer #NEC56825000) was added to each well. The uptake of 14C thymidine was measured 96 hrs after the experiment has been started with a microbeta radioactive counter (Perkin Elmer). Cell-free reagent blanks were subtracted from the test well readings and the data were plotted as surviving fractions obtained by dividing readings of the conjugate-treated cells by the average of readings from control wells of vehicle-treated cells.

The test system of another assay is HCT116. Put plainly: Inhibition of growth of HCT116 tumor cells by free drugs (14C thymidine uptake). It counts as cell-based. To be noted: Homo sapiens, HCT-116; HCT116, 96 hrs; read-out: cellular inhibition proliferation (IC50 in nM) HCT116. The method, then:
as §1, §2

The structures appear in SMILES notation.

Regarding `COC(=O)CCOCCOCCOCCOCCNC(=O)CSC(C)(C)CCC(=O)N(C)[C@@H](C)C(=O)O[C@H]1CC(=O)N(C)c2cc(cc(OC)c2Cl)C/C(C)=C/C=C/[C@@H](OC)[C@@]2(O)C[C@H](OC(=O)N2)[C@@H](C)[C@@H]2O[C@@]12C` [Example 10, L-DM4-AcNH-PEG4-COOMe], the IC50 was 15.3 nM in the assay on MDA-MB231 and 13 nM in the assay with HCT116.
Take `COC(=O)CCOCCOCCOCCOCCN(C)C(=O)CSC(C)(C)CCC(=O)N(C)[C@@H](C)C(=O)O[C@H]1CC(=O)N(C)c2cc(cc(OC)c2Cl)C/C(C)=C/C=C/[C@@H](OC)[C@@]2(O)C[C@H](OC(=O)N2)[C@@H](C)[C@@H]2O[C@@]12C` [Example 11, L-DM4-AcNMe-PEG4-COOMe]: the results for the IC50 in the assay on MDA-MB231 and in the assay on HCT116 were 28.3 nM and 18.5 nM, respectively.
With `COC(=O)CCOCCOCCOCCOC/C=C/CSC(C)(C)CCC(=O)N(C)[C@@H](C)C(=O)O[C@H]1CC(=O)N(C)c2cc(cc(OC)c2Cl)C/C(C)=C/C=C/[C@@H](OC)[C@@]2(O)C[C@H](OC(=O)N2)[C@@H](C)[C@@H]2O[C@@]12C` [Example 12, L-DM4-Allyl-PEG4-COOMe], the IC50 in the assay with MDA-MB231 came out at 1.5 nM; with HCT116, 0.8 nM.
With `COC(=O)CCOCCOCCOCCOCCNC(=O)CCN1C(=O)CC(SC(C)(C)CCC(=O)N(C)[C@@H](C)C(=O)O[C@H]2CC(=O)N(C)c3cc(cc(OC)c3Cl)C/C(C)=C/C=C/[C@@H](OC)[C@@]3(O)C[C@H](OC(=O)N3)[C@@H](C)[C@@H]3O[C@@]23C)C1=O` (stereo partly drawn) [Example 14, L-DM4-Mal-PEG4-COOMe], the IC50 in the assay on MDA-MB231 was 31.7 nM; in the assay with HCT116, 33.6 nM.
